The values below come from ChEMBL document CHEMBL5321294, “Evolution of Slow-Binding Inhibitors Targeting Histone Deacetylase Isoforms” (J Med Chem, 2023).

In assay [1] the target is T1, Histone deacetylase 11 (Homo sapiens) (UniProt Q96DB2).
T1 sequence (whole entry): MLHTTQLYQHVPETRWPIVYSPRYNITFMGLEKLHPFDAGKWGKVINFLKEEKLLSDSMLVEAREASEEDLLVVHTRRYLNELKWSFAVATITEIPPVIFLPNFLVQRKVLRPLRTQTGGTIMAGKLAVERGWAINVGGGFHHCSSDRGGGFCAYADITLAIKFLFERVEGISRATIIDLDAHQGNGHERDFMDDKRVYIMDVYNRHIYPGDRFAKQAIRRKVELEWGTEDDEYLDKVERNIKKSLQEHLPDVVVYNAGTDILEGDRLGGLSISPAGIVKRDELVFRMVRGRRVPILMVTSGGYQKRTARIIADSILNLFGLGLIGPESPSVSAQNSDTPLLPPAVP
The assay is described as follows: Binding affinity to human HDAC11 assessed as binding constant (k-2).

For the next assay, the target named is Histone deacetylase 1 (Homo sapiens, UniProt Q13547). The assay is described as follows: Binding affinity to HDAC1 (unknown origin) assessed as inhibition constant(ki,1).
Histone deacetylase 1, sequence (Q13547 whole entry): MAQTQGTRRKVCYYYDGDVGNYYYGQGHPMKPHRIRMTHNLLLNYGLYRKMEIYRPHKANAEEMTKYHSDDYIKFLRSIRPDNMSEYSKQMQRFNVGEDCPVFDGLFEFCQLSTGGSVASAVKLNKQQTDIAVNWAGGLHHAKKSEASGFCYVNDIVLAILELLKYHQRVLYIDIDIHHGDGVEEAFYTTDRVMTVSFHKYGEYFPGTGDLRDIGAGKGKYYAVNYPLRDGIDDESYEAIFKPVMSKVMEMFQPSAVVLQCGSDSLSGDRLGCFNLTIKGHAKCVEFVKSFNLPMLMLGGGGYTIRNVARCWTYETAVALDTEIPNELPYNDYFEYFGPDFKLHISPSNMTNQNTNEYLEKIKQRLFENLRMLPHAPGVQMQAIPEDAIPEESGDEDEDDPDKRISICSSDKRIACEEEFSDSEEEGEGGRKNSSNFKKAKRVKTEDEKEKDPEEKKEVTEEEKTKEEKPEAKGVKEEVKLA
Assay [2] concerns the target T1, Histone deacetylase 11 (Homo sapiens). The assay is described as follows: Binding affinity to human HDAC11 assessed as binding constant (k2).
For assay [3], the target named is T2, Protein deacetylase HDAC6 (Homo sapiens) (UniProt Q9UBN7).
T2 sequence (whole entry): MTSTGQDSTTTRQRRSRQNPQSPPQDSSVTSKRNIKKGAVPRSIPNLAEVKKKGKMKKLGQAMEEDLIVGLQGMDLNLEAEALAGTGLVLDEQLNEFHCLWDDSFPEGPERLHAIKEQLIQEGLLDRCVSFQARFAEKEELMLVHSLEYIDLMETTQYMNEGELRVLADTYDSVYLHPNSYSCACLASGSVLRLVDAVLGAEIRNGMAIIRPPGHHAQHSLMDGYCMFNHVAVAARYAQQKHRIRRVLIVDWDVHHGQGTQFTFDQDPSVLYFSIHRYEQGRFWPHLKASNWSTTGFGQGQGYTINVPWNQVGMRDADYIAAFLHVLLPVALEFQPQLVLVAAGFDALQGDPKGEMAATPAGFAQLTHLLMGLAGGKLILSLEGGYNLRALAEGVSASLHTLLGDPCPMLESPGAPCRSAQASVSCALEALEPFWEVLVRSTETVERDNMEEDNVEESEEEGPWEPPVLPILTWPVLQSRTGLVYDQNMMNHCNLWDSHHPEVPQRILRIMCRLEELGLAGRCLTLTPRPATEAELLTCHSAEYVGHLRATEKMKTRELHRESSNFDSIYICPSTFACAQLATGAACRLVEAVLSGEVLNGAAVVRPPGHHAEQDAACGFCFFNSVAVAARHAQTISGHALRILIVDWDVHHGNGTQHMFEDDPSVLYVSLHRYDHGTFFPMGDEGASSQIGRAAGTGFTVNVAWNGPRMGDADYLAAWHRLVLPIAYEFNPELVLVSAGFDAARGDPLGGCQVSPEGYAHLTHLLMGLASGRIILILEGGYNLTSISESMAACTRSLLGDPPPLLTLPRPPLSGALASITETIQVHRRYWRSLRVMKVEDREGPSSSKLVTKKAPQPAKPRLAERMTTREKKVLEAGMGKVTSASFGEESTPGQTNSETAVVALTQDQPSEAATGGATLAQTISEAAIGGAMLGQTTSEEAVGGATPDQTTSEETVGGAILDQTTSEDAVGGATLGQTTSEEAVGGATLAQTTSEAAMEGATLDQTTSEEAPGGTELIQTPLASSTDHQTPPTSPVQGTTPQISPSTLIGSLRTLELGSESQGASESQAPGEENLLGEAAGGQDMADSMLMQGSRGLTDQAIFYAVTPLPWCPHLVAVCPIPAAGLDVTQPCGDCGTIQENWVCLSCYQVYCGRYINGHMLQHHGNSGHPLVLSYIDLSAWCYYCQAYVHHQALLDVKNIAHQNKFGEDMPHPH
The experiment in a line: Binding affinity to recombinant human HDAC6 using Ac-Leu-Gly-Lys(Ac)-AMC as substrate measured after 60 mins assessed as binding constant (k2) by fluorescence based assay.

The target of assay [4] is T3, Histone deacetylase 3 (Homo sapiens, UniProt O15379). The assay is described as follows: Binding affinity to HDAC3 (unknown origin) assessed as residence time.
T3 sequence (O15379 whole entry): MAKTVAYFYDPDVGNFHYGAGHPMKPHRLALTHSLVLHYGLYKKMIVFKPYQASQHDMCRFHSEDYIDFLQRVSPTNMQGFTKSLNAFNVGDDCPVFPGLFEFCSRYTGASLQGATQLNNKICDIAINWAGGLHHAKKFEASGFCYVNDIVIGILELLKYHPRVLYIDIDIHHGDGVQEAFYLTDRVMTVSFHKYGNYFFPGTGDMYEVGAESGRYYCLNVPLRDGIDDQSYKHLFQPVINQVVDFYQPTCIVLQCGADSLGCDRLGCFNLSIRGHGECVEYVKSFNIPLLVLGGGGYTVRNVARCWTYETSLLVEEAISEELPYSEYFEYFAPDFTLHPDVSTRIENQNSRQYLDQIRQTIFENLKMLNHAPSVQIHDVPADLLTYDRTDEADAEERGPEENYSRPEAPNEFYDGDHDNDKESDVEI
Assay [5] has as its target T4, Protein deacetylase HDAC6 (Homo sapiens, UniProt Q9UBN7).
T4 sequence (Q9UBN7 whole entry): T2 sequence (whole entry)
The experiment in a line: Binding affinity to recombinant human HDAC6 using Ac-Leu-Gly-Lys(Ac)-AMC as substrate measured after 60 mins assessed as inhibition constant by fluorescence based assay.

Assay [6] addresses T4, Protein deacetylase HDAC6. The experiment in a line: Binding affinity to recombinant human HDAC6 using Ac-Leu-Gly-Lys(Ac)-AMC as substrate measured after 60 mins assessed as inhibition constant (ki,1) by fluorescence based assay.
Assay [7] deals with T3, Histone deacetylase 3. The assay is described as follows: Binding affinity to HDAC3 (unknown origin) assessed as inhibition constant.
Another assay addresses T5, Histone deacetylase 11 (Homo sapiens, UniProt Q96DB2).
T5 sequence (Q96DB2 whole entry): T1 sequence (whole entry)
The assay is described as follows: Binding affinity to human HDAC11 assessed as inhibition constant (ki,1).

The target in assay [8] is T2, Protein deacetylase HDAC6 (Homo sapiens). The experiment in a line: Binding affinity to recombinant human HDAC6 using Ac-Leu-Gly-Lys(Ac)-AMC as substrate measured after 60 mins assessed as binding constant (k-2) by fluorescence based assay.
Assay [9] shares this target. The experiment in a line: Binding affinity to recombinant human HDAC6 using Ac-Leu-Gly-Lys(Ac)-AMC as substrate assessed as residence time.
A further assay addresses Histone deacetylase 2 (Homo sapiens, UniProt Q92769). The experiment in a line: Binding affinity to HDAC2 (unknown origin) assessed as inhibition constant(ki,1).
Assay [10] concerns the target T3, Histone deacetylase 3. The assay is described as follows: Binding affinity to HDAC3 (unknown origin) assessed as inhibition constant(ki,1).
In assay [11] the target is T3, Histone deacetylase 3. The assay is described as follows: Binding affinity to HDAC3 (unknown origin) assessed as binding constant(k2).
In assay [12] the target is T3, Histone deacetylase 3. The assay is described as follows: Binding affinity to HDAC3 (unknown origin) assessed as binding constant(k-2).
Assay [13] deals with T2, Protein deacetylase HDAC6 (Homo sapiens). The assay is described as follows: Binding affinity to N-terminal GST-tagged human full length HDAC6 expressed in baculovirus infected Sf9 cells using Fluor-de-Lys Green as substrate assessed as dissociation constant (koff) by jump dilution assay.
For assay [14] the target is unchanged. The experiment in a line: Binding affinity to N-terminal GST-tagged human full length HDAC6 expressed in baculovirus infected Sf9 cells using Fluor-de-Lys Green as substrate assessed as residence time.
The target is the same in assay [15]. The experiment in a line: Binding affinity to N-terminal GST-tagged human full length HDAC6 expressed in baculovirus infected Sf9 cells using Fluor-de-Lys Green as substrate assessed as residence time by jump dilution assay.
The target is the same in assay [16]. The experiment in a line: Binding affinity to N-terminal GST-tagged human full length HDAC6 expressed in baculovirus infected Sf9 cells using Fluor-de-Lys Green as substrate assessed as dissociation constant (koff).
Assay [17] deals with T4, Protein deacetylase HDAC6. The experiment in a line: Inhibition of N-terminal GST-tagged human full length HDAC6 expressed in baculovirus infected Sf9 cells using Fluor-de-Lys Green as substrate.
Assay [18] has as its target T2, Protein deacetylase HDAC6 (Homo sapiens). The assay is described as follows: Binding affinity to N-terminal GST-tagged human full length HDAC6 expressed in baculovirus infected Sf9 cells using Fluor-de-Lys Green as substrate assessed as association constant (kon).
Assay [19] deals with T4, Protein deacetylase HDAC6. The experiment in a line: Binding affinity to N-terminal GST-tagged human full length HDAC6 expressed in baculovirus infected Sf9 cells using Fluor-de-Lys Green as substrate assessed as inhibition constant.

The Ki is the dissociation constant of the complex between target and ligand, obtained from inhibition or displacement. What is called IC50 is the concentration that inhibits the measured activity by half. A lower IC50 goes with inhibition by little substance.

Non-standard residues stand in square brackets, D forms with d. Residues, ends and D or L forms follow the SMILES beside them. *: point of attachment. Asu = N[C@@H](CCCCCC(=O)O)C(=O)O; dPip = O=C(O)[C@H]1CCCCN1; NHOH = ON*

Histone deacetylase 2, sequence (Q92769 whole entry): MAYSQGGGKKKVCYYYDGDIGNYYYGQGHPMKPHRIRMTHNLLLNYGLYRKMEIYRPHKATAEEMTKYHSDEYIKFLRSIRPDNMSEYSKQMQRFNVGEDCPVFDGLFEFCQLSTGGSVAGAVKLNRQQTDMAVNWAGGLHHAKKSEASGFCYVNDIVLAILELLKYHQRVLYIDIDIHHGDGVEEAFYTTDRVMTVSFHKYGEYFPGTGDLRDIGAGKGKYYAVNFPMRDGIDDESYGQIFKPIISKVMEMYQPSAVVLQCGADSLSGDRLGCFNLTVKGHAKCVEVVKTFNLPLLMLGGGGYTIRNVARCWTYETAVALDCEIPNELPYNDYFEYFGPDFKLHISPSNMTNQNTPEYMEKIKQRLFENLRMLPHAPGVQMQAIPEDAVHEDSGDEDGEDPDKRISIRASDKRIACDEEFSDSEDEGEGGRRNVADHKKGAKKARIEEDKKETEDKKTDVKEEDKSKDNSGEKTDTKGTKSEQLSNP

`CC[C@H](C)[C@@H]1NC(=O)[C@H](Cc2c[nH]c3ccccc23)NC(=O)[C@H](CCCCCC(=O)NO)NC(=O)[C@H]2CCCCN2C1=O` (cyclo([Asu](NHOH)WI[dPip])): the K in assay [1] came to 0 min⁻¹; in [2], 0.73 min⁻¹; in assay [3], 0.17 min⁻¹; in [8], 0.01 min⁻¹; on Histone deacetylase 3 [11], 0.158 min⁻¹; on Histone deacetylase 3 [12], 0.009 min⁻¹. Also, the Ki at Histone deacetylase 1 was 0.32 nM; in [5], approximately 3.6 nM; in [6], 23 nM; on Histone deacetylase 3 [7] it was 0.04 nM; at Histone deacetylase 11, 18 nM; on Histone deacetylase 2, 0.35 nM. Also, the Ki at Histone deacetylase 3 [10] turned out to be 1.6 nM. Further, the values for the TIME (on Histone deacetylase 3 [4]; in [9]) were 1.85 h and 1.67 h, respectively.

Regarding `FC(F)c1nnc(-c2ccc(Cn3cc(-c4ccc(NC5N=CCN5)cc4)nn3)cc2)o1` (configuration not stated), the K in assay [13] is 3.3 10^-3/min; in assay [16] it was 4.6 10^-3/min; in assay [18] it was 9.6 10^5/min/M. In addition, the TIME in assay [14] was 3.6 h; in assay [15] it was 5.1 h. In [17], this compound showed an IC50 of 7.7 nM. Also, the Ki in assay [19] was 4.8 nM.
